# Experimental data published in the supplement of paper PMC10307832.
# Assays:
# Assay in all cases: relative viability (nuclei count vs DMSO), 5 days (fraction); higher = more cells survive
# [1] = compound: C(C(=O)C(=O)O)Br [Bromopyruvate] + CC1(C)CCC(c2ccc(Cl)cc2)=C(CN2CCN(c3ccc(C(=O)NS(=O)(=O)c4ccc(N[C@H](CCN5CCOCC5)CSc5ccccc5)c(S(=O)(=O)C(F)(F)F)c4)cc3)CC2)C1 [Navitoclax] (partner 0.5 µM)
# How it was run: (§1)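 Each reported value is a median over duplicate plates. It expresses relative viability: treated-well nuclei count divided by vehicle-well nuclei count. Lung cancer cell lines in 1536-well plates were dosed by pin tool a day after seeding, alone with one drug or with a fixed anchor-drug dose plus five library-drug doses (not always all listed) in √10 steps, and nuclei were counted after 5 days.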
# [2] = compound: C(C(=O)C(=O)O)Br [Bromopyruvate] + N=C(N)NC(=N)NCCc1ccccc1 [Phenformin] (partner 250 µM)
# How it was run: as §1
# [3] = compound: CC(O)(CS(=O)(=O)c1ccc(F)cc1)C(=O)Nc1ccc(C#N)c(C(F)(F)F)c1 [Bicalutamide] + CCNC(=O)c1noc(-c2cc(C(C)C)c(O)cc2O)c1-c1ccc(CN2CCOCC2)cc1 [Luminespib] (partner 0.01 µM)
# How it was run: as §1
# [4] = compound: CC(O)(CS(=O)(=O)c1ccc(F)cc1)C(=O)Nc1ccc(C#N)c(C(F)(F)F)c1 [Bicalutamide] + Cc1nc(NC(=O)N2CCC[C@H]2C(N)=O)sc1-c1ccnc(C(C)(C)C(F)(F)F)c1 [Alpelisib] (partner 2 µM)
# How it was run: as §1
Cell Line,relative viability ([1]; first compound 1 µM),relative viability ([1]; first compound 3.162 µM),relative viability ([1]; first compound 10 µM),relative viability ([1]; first compound 31.62 µM),relative viability ([1]; first compound 100 µM),relative viability ([2]; first compound 1 µM),relative viability ([2]; first compound 3.162 µM),relative viability ([2]; first compound 10 µM),relative viability ([2]; first compound 31.62 µM),relative viability ([2]; first compound 100 µM),relative viability ([3]; first compound 0.08 µM),relative viability ([3]; first compound 0.253 µM),relative viability ([3]; first compound 0.8 µM),relative viability ([3]; first compound 2.53 µM),relative viability ([4]; first compound 0.08 µM),relative viability ([4]; first compound 0.253 µM),relative viability ([4]; first compound 0.8 µM),relative viability ([4]; first compound 2.53 µM)
NCI-H1975,1.18,1.26,1.08,1.31,0.994,0.431,0.443,0.439,0.407,0.367,0.294,0.23,0.33,0.177,0.642,0.615,0.795,0.526
NCI-H1993,1.02,0.96,0.925,1.09,0.901,0.492,0.488,0.547,0.495,0.501,0.835,0.894,1.07,0.999,,0.693,0.708,0.717
NCI-H2009,1.15,1.26,1.22,1.06,0.899,0.476,0.493,0.507,0.475,0.344,1.06,1.01,0.987,1.04,1.25,1.14,1.13,1.18
NCI-H2023,0.97,1.06,1.06,1.09,1.06,0.39,0.415,0.478,0.419,0.429,0.868,0.703,1,0.634,0.593,0.59,0.555,0.608
NCI-H2085,1.08,1.19,1.25,1.07,1.05,0.693,0.757,0.84,0.749,0.698,0.59,0.587,0.459,0.448,0.895,1.04,0.958,0.879
NCI-H2087,0.974,1.08,0.987,0.966,1.02,0.493,0.445,0.578,0.414,0.392,0.157,0.153,0.168,0.259,1.22,0.843,1.16,1.13
NCI-H2126,0.827,0.9,0.906,0.856,0.873,0.556,0.534,0.518,0.54,0.513,0.923,0.904,1.16,0.915,0.742,0.707,0.76,0.74
NCI-H2170,0.549,0.533,0.577,0.541,0.57,0.414,0.487,0.435,0.41,0.379,0.689,0.527,0.588,0.591,0.834,0.767,0.853,0.842
NCI-H2228,0.936,0.698,0.864,0.469,0.63,0.341,0.418,0.178,0.285,0.334,0.231,0.241,0.169,0.14,0.779,0.805,0.908,0.58
NCI-H2347,0.714,0.742,1.13,0.553,0.778,0.463,0.35,0.572,0.312,0.566,0.357,0.399,0.263,0.673,1.09,1.09,1.12,0.971
NCI-H2405,0.903,0.94,0.971,0.774,1.15,0.403,0.432,0.421,0.354,0.388,0.669,0.661,0.826,0.627,0.789,0.775,0.827,0.775
NCI-H3122,1.03,0.974,1.08,1.01,1.03,0.401,0.398,0.394,0.374,0.376,0.0979,0.0782,0.126,0.106,0.707,0.92,0.821,0.767
PC-3 [JPC-3],0.751,0.811,0.838,0.727,0.828,0.495,0.488,0.458,0.493,0.493,0.665,0.659,0.667,0.734,1.08,1.01,1.09,1.07
PC-14,1.02,1.02,1.07,1.02,1.01,0.754,0.737,0.776,0.546,0.516,0.16,0.148,0.198,0.137,0.916,0.952,0.969,0.869
RERF-LC-KJ,1.05,0.822,1.05,0.868,0.98,0.4,0.438,0.514,0.429,0.416,1.24,1.2,1.36,1.2,0.756,0.81,0.948,0.777
SK-LU-1,0.866,0.971,0.935,0.734,0.574,0.52,0.533,0.581,0.506,0.494,0.189,0.188,0.217,0.188,1.12,0.962,1.41,0.848
SK-MES-1,1.1,1.25,1.17,1.29,1.26,0.653,0.651,0.671,0.658,0.668,0.609,0.736,0.97,0.709,0.903,0.718,1.02,0.858
